Earlier results in patent US20230021879A1, “SYNTHESIS OF 3 -RNA OLIGONUCLEOTIDES” (ALNYLAM PHARMACEUTICALS, INC., priority 2019, published 2023).

Target: P-glycoprotein 1 (P-gp) (Homo sapiens, UniProt P08183)
Conditions: earlier studies

Chain of P-glycoprotein 1 (P-gp) (P08183 whole entry, species assumed): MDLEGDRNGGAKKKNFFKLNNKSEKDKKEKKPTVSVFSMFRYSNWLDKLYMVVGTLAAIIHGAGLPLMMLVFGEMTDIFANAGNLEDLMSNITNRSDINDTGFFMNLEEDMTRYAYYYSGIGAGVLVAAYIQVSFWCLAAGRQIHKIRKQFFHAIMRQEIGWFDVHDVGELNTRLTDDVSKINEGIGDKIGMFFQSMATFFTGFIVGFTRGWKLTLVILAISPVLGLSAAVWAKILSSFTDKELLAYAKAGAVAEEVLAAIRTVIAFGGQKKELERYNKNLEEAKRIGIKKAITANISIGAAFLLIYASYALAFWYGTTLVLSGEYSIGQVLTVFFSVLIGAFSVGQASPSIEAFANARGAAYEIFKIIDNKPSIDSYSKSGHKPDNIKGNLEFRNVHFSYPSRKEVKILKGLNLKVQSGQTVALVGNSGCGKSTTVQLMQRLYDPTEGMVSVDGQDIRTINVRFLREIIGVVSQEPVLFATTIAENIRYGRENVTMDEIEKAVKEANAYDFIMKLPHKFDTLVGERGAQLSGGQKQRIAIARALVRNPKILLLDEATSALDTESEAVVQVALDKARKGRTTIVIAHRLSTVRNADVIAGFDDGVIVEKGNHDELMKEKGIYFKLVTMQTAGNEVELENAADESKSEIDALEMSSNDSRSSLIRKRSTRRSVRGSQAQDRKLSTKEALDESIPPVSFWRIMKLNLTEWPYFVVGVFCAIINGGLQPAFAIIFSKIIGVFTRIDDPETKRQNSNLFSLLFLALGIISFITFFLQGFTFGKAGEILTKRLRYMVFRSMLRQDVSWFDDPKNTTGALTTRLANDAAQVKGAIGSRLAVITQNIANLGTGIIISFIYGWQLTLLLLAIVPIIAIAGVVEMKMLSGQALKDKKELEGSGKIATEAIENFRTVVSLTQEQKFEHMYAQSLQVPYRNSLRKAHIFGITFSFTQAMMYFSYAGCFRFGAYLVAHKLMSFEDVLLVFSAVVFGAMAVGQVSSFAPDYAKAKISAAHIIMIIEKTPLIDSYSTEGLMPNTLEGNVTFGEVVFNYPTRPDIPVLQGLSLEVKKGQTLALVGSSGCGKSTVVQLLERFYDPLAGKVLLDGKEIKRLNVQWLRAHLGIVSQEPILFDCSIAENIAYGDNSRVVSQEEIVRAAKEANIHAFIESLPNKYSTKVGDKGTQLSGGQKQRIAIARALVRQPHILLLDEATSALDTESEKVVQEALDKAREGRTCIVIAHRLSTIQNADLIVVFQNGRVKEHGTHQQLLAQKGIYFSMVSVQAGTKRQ

P-gp substrate status: poor substrate
Structure (SMILES): C[C@@H]1O[C@@H](O[C@H]2C[C@](O)(C(=O)CO)Cc3c(O)c4c(c(O)c32)C(=O)c2ccccc2C4=O)[C@H](I)[C@H](O)[C@H]1O [Annamycin, (7S,9S)-7-(((2R,3R,4R,5R,6S)-4,5-dihydroxy-3-iodo-6-methyltetrahydro-2H-pyran-2-yl)oxy)-6,9,11-trihydroxy-9-(2-hydroxyacetyl)-7,8,9,10-tetrahydrotetracene-5,12-dione]
